In patent US6057447A, “Quinoline sulfide derivatives” (Zenyaku Kogyo Kabushiki Kaisha, priority 1996, dated 2000) one finds MIC data, which are given here for 33 compounds.

Structures are written as SMILES. ≈ marks a conversion by molar mass, not a printed value.

In the experiment the test system is Helicobacter pylori standard strain ATCC 43526 (NCTC 11916). As to the kind of experiment: Antibacterial Test 1: MIC against Helicobacter pylori, agar plate dilution method (anaerobic MIC method). The conditions noted are these: 72 h, Hp ATCC 43526, agar plate dilution, 37° C., 3 days. The class given is cell-based.
In the case of `O=C(CSc1ccnc2ccccc12)c1ccc(-c2ccccc2)cc1` [Compound 4, 4-[2-(p-Biphenyl)-2-oxoethylthio]quinoline], the lowest concentration to inhibit growth (MIC) was 0.1 µg/mL (≈ 0.281 µM).

In the case of `COc1ccc(C(=O)CSc2ccnc3ccccc23)c(OC)c1` [Compound 6, 4-[2-(2,4-Dimethoxyphenyl)-2-oxoethylthio]quinoline], the MIC amounted to 0.05 µg/mL (≈ 0.147 µM).

Turning to `CC(C)(C)OC(=O)N1CCN(c2ccc(C(=O)CSc3ccnc4ccccc34)cc2Br)CC1` [Compound 14, 4-[2-[3-Bromo-4-(4-tert-butoxycarbonyl-1-piperazinyl)-phenyl]-2-oxoethylthio]quinoline], the MIC came to 0.0016 µg/mL (≈ 0.00295 µM).

The compound `COc1ccc(Oc2ccc(C(=O)CSc3ccnc4ccccc34)cc2)cc1` [Compound 15, 4-[2-[4-(4-Methoxyphenoxy)phenyl]-2-oxoethylthio]-quinoline] came in with an MIC of 0.1 µg/mL (≈ 0.249 µM).

The compound `COc1cc(C(=O)CSc2ccnc3ccccc23)cc(OC)c1OC` [Compound 17, 4-(2-(3,4,5-Trimethoxyphenyl)-2-oxoethylthio]quinoline] displayed an MIC of 0.05 µg/mL (≈ 0.135 µM).

For the compound `CC(C)(C)C(=O)Nc1ccc(C(=O)CSc2ccnc3ccccc23)cc1` [Compound 19, 4-[2-(4-Pivaloylaminophenyl)-2-oxoethylthio]quinoline], the MIC was found to be 0.1 µg/mL (≈ 0.264 µM).

For the compound `O=C(CSc1ccnc2ccccc12)c1ccc(NCc2ccccc2)c(Br)c1` [Compound 20, 4-[2-(4-Benzylamino-3-bromophenyl)-2-oxoethylthio]-quinoline], the MIC was 0.025 µg/mL (≈ 0.0539 µM).

For `CC(C)(C)OC(=O)Nc1ccc(CCSc2ccnc3ccccc23)cc1` [Compound 24, 4-[2-(4-tert-Butoxycarbonylaminophenyl)ethylthio]-quinoline], inhibition of growth (MIC) required 0.2 µg/mL (≈ 0.526 µM).

Compound `c1ccc(COc2ccc(CCSc3ccnc4ccccc34)cc2)cc1` [Compound 25, 4-[2-(4-Benzyloxyphenyl)ethylthio]quinoline] gave an MIC of 0.1 µg/mL (≈ 0.269 µM).

In turn, `CC(C)(C)C(=O)N1CCC(c2ccc(C(=O)CSc3ccnc4ccccc34)cc2)CC1` [Compound 28, 4-[2-[4-(1-Pivaloyl-4-piperidinyl)phenyl]-2-oxoethylthio]-quinoline] yielded an MIC of 0.0008 µg/mL (≈ 0.00179 µM).

`CC(C)CN1CCN(c2ccc(C(=O)CSc3ccnc4ccccc34)cc2)CC1` [Compound 29, 4-[2-[4-(4-Isobutyl-1-piperazinyl)phenyl]-2-oxoethylthio]quinoline] displayed an MIC of 0.0008 µg/mL (≈ 0.00191 µM).

In turn, `CC(C)(C)OC(=O)Nc1ccc(C(=O)CSc2ccnc3ccccc23)cc1` [Compound 30, 4-[2-(4-tert-Butoxycarbonylaminophenyl)-2-oxoethylthio]-quinoline] showed an MIC of 0.1 µg/mL (≈ 0.253 µM).

The compound `CSc1ccc2c(SC(C)c3ccc(N(C)C)cc3)ccnc2c1` (stereo not drawn) [Compound 33, 4-[1-(4-Dimethylaminophenyl)ethylthio]-7-methylthio-quinoline] yielded an MIC of 0.2 µg/mL (≈ 0.564 µM).

In the case of `COc1ccc2c(SCc3ccc(NCC(C)C)cc3)ccnc2c1` [Compound 35, 4-(4-Isobutylaminobenzylthio)-7-methoxyquinoline], the MIC stood at 0.39 µg/mL (≈ 1.11 µM).

The compound `CCNc1ccc(CSc2ccnc3cc(SC)ccc23)cc1` [Compound 36, 4-(4-Ethylaminobenzylthio)-7-methylthioquinoline] showed an MIC of 0.1 µg/mL (≈ 0.294 µM).

`CSc1ccc2c(SCc3ccc(NCCC(C)CC(C)(C)C)cc3)ccnc2c1` (stereo not drawn) [Compound 37, 4-[4-(3,5,5-Trimethylhexylamino)benzylthio]-7-methylthioquinoline] returned a minimal inhibitory concentration (MIC) of 0.2 µg/mL (≈ 0.456 µM).

In the case of `CSc1ccc2c(SCc3ccc(NCC(=O)c4ccc5ccccc5c4)cc3)ccnc2c1` [Compound 38, 4-[4-(2-β-Naphtyl-2-oxoethylamino)benzylthio]-7-methylthioquinoline], the MIC was 0.2 µg/mL (≈ 0.416 µM).

For the compound `CNc1ccc(CSc2ccnc3cc(SC)ccc23)cc1C` [Compound 39, 4-(3-Methyl-4-methylaminobenzylthio)-7-methylthioquinoline], the MIC came out at 0.1 µg/mL (≈ 0.294 µM).

As for `CSc1ccc2c(SCc3ccc(N(C)C)c(C)c3)ccnc2c1` [Compound 40, 4-(3-Methyl-4-dimethylaminobenzylthio)-7-methylthioquinoline], the MIC worked out at 0.2 µg/mL (≈ 0.564 µM).

`CSc1ccc2c(SCc3ccc(N(C)C)c(N(C)C)c3)ccnc2c1` [Compound 41, 4-[3,4-Bis(dimethylamino)benzylthio]-7-methylthioquinoline] came in with an MIC of 0.2 µg/mL (≈ 0.521 µM).

Compound `CSc1ccc2c(SCc3ccc(N4CCOCC4)cc3)ccnc2c1` [Compound 43, 4-(4-Morpholinobenzylthio)-7-methylthioquinoline] showed an MIC of 0.1 µg/mL (≈ 0.261 µM).

`CSc1ccc2c(SCc3ccc(N4CCCC4)cc3)ccnc2c1` [Compound 44, 4-[4-(1-Pyrrolidinyl)benzylthio]-7-methylthioquinoline]: the MIC was determined as 0.2 µg/mL (≈ 0.546 µM).

For `CSc1ccc2c(SCc3ccc(N4CCCCC4)cc3)ccnc2c1` [Compound 45, 4-(4-Piperidinobenzylthio)-7-methylthioquinoline], inhibition of growth (MIC) required 0.2 µg/mL (≈ 0.526 µM).

The compound `CSc1ccc2c(SCc3ccc(N4CCN(C)CC4)cc3)ccnc2c1` [Compound 46, 4-[4-(4-Methyl-1-piperazinyl)benzylthio]-7-methylthioquinoline] registered an MIC of 0.1 µg/mL (≈ 0.253 µM).

The compound `CSc1ccc2c(SCc3ccc(N(CCOC(C)=O)CCOC(C)=O)cc3)ccnc2c1` [Compound 47, 4-[4-[Bis(2-acetoxyethyl)amino]benzylthio]-7-methylthioquinoline] registered an MIC of 0.2 µg/mL (≈ 0.413 µM).

Consider `CSc1ccc2c(SCc3ccc(N(CCO)CCOC(C)=O)cc3)ccnc2c1` [Compound 48, 4-[4-[N-(2-Acetoxyethyl)-2-hydroxyethylamino]benzylthio]-7-methylthioquinoline], for which the lowest concentration to inhibit growth (MIC) was 0.1 µg/mL (≈ 0.226 µM).

`CC(C)(C)OC(=O)N1CCN(CCc2ccc(C(=O)CSc3ccnc4ccccc34)cc2)CC1` [Compound 50, 4-[2-[4-[2-(4-tert-Butoxycarbonyl-1-piperazinyl)ethyl]-phenyl]-2-oxoethylthio]quinoline] yielded an MIC of 0.05 µg/mL (≈ 0.102 µM).

The compound `Cl.O=C(CSc1ccnc2ccccc12)c1ccc(N2CCNCC2)cc1` [Compound 51, 4-[2-[4-(1-Piperazinyl)phenyl]-2-oxoethylthio]quinoline hydrochloride] came in with an MIC of 0.2 µg/mL.

Take `CC(C)(C)C(=O)N1CCN(c2ccc(C(=O)CSc3ccnc4ccccc34)cc2)CC1` [Compound 52, 4-[2-[4-(4-Pivaloyl-1-piperazinyl)phenyl]-2-oxoethylthio]quinoline]: the MIC was determined as 0.0008 µg/mL (≈ 0.00179 µM).

Consider `COc1ccc(C=CC(=O)N2CCN(c3ccc(C(=O)CSc4ccnc5ccccc45)cc3)CC2)cc1` [Compound 53, 4-[2-[4-[4-(4-Methoxycinnamoyl)-1-piperazinyl]phenyl]-2-oxoethylthio]quinoline], for which it took 0.025 µg/mL (≈ 0.0477 µM) to inhibit growth (MIC).

As for `CCN(CC)C(=S)N1CCN(c2ccc(C(=O)CSc3ccnc4ccccc34)cc2)CC1` [Compound 54, 4-[2-[4-(4-Diethylaminothiocarbonyl-1-piperazinyl)-phenyl]-2-oxoethylthio]quinoline], the MIC was 0.0016 µg/mL (≈ 0.00334 µM).

As for `CCCCCCOc1ccc(C(=O)CSc2ccnc3ccccc23)c(OC)c1` [Compound 55, 4-[2-[2-Methoxy-4-hexyloxyphenyl]-2-oxoethylthio]-quinoline], the MIC is 0.0062 µg/mL (≈ 0.0151 µM).

The compound `COc1ccc(COc2ccc(C(=O)CSc3ccnc4ccccc34)cc2)cc1` [Compound 56, 4-[2-[4-(4-Methoxybenzyloxy)phenyl]-2-oxoethylthio]-quinoline] had an MIC of 0.0125 µg/mL (≈ 0.0301 µM).
